Data as given in PubChem BioAssay AID1745844 (Carcinogenic Potency Database (CPDB), 2022).
Calls of active or inactive are those of the source. No rule for the calls is given here.

Tested on: rodent lifetime carcinogenesis bioassay, tumor incidence TD50
Assay: carcinogenic potency in animals, long-term in vivo studies, CPDB compilation (AID 1745844)

## CCCCCCCCCCN(C)N=O
rat, strain Fischer 344, males, by gavage, site: any site (literature study), lesion: several types, types named in the paper, dosed 30 weeks, study length 102 weeks
  carcinogen call: positive
rat, strain Fischer 344, males, by gavage, site: forestomach, lesion: carcinoma, dosed 30 weeks, study length 102 weeks
  TD50: 46.6 mg/kg/day
rat, strain Fischer 344, males, by gavage, site: forestomach, lesion: papilloma, dosed 30 weeks, study length 102 weeks
  TD50: 46.6 mg/kg/day
rat, strain Fischer 344, males, by gavage, site: liver, lesion: hepatocellular carcinoma, dosed 30 weeks, study length 102 weeks
  TD50: 22.7 mg/kg/day
rat, strain Fischer 344, males, by gavage, site: lung, lesion: adenocarcinoma, dosed 30 weeks, study length 102 weeks
  TD50: 8.32 mg/kg/day
rat, strain Fischer 344, males, by gavage, site: lung, lesion: adenoma, dosed 30 weeks, study length 102 weeks
  TD50: 14.7 mg/kg/day
rat, strain Fischer 344, males, by gavage, site: nasal cavity, lesion: several types, types named in the paper, dosed 30 weeks, study length 102 weeks
  TD50: 46.6 mg/kg/day
rat, strain Fischer 344, males, by gavage, site: urinary bladder, lesion: transitional-cell carcinoma, dosed 30 weeks, study length 102 weeks
  TD50: 1.26 mg/kg/day

## S=C(NC1CCCCC1)NC1CCCCC1
mouse, strain B6C3F1, females, in feed, site: any site (literature study), lesion: several types, types named in the paper, dosed 109 weeks, study length 103 weeks
  TD50: 122000 mg/kg/day (inactive)
mouse, strain B6C3F1, females, in feed, site: lung, lesion: alveolar/bronchiolar adenoma + alveolar/bronchiolar carcinoma, dosed 109 weeks, study length 103 weeks
  TD50: 1.11e+08 mg/kg/day
mouse, strain B6C3F1, males, in feed, site: any site (literature study), lesion: several types, types named in the paper, dosed 109 weeks, study length 103 weeks
  carcinogen call: negative (inactive)
rat, strain Fischer 344, females, in feed, site: any site (literature study), lesion: several types, types named in the paper, dosed 109 weeks, study length 109 weeks
  carcinogen call: negative (inactive)
rat, strain Fischer 344, males, in feed, site: any site (literature study), lesion: several types, types named in the paper, dosed 109 weeks, study length 109 weeks
  TD50: 3910 mg/kg/day
rat, strain Fischer 344, males, in feed, site: liver, lesion: hepatocellular adenoma + hepatocellular carcinoma + neoplastic nodule, dosed 109 weeks, study length 109 weeks
  TD50: 15600 mg/kg/day
rat, strain Fischer 344, males, in feed, site: skin, lesion: basal-cell carcinoma, dosed 109 weeks, study length 109 weeks
  TD50: 26100 mg/kg/day
rat, strain Fischer 344, males, in feed, site: thyroid gland, lesion: c-cell adenoma, dosed 109 weeks, study length 109 weeks
  TD50: 5480 mg/kg/day (inactive)
rat, strain Fischer 344, males, in feed, site: thyroid gland, lesion: follicular-cell adenoma + follicular-cell carcinoma, dosed 109 weeks, study length 109 weeks
  TD50: 7410 mg/kg/day

## Cc1cc(OC(=O)N(C)C)n(C(C)C)n1
mouse, strain B6AKF1, females, oral dosing, site: any site (literature study), lesion: several types, types named in the paper, dosed 76 weeks, study length 76 weeks
  TD50: 0.023 mg/kg/day (inactive)
mouse, strain B6AKF1, females, oral dosing, site: liver, lesion: hepatoma, dosed 76 weeks, study length 76 weeks
  carcinogen call: negative (inactive)
mouse, strain B6AKF1, females, oral dosing, site: lung, lesion: several types, types named in the paper, dosed 76 weeks, study length 76 weeks
  carcinogen call: negative (inactive)
mouse, strain B6AKF1, males, oral dosing, site: any site (literature study), lesion: several types, types named in the paper, dosed 76 weeks, study length 76 weeks
  TD50: 0.0124 mg/kg/day (inactive)
mouse, strain B6AKF1, males, oral dosing, site: liver, lesion: hepatoma, dosed 76 weeks, study length 76 weeks
  TD50: 0.0419 mg/kg/day (inactive)
mouse, strain B6AKF1, males, oral dosing, site: lung, lesion: adenoma, dosed 76 weeks, study length 76 weeks
  TD50: 0.0147 mg/kg/day (inactive)
mouse, strain B6C3F1, females, oral dosing, site: any site (literature study), lesion: several types, types named in the paper, dosed 76 weeks, study length 76 weeks
  carcinogen call: negative (inactive)
mouse, strain B6C3F1, females, oral dosing, site: liver, lesion: hepatoma, dosed 76 weeks, study length 76 weeks
  carcinogen call: negative (inactive)
mouse, strain B6C3F1, females, oral dosing, site: lung, lesion: adenoma, dosed 76 weeks, study length 76 weeks
  carcinogen call: negative (inactive)
mouse, strain B6C3F1, males, oral dosing, site: any site (literature study), lesion: several types, types named in the paper, dosed 76 weeks, study length 76 weeks
  TD50: 0.0413 mg/kg/day (inactive)
mouse, strain B6C3F1, males, oral dosing, site: liver, lesion: hepatoma, dosed 76 weeks, study length 76 weeks
  carcinogen call: negative (inactive)
mouse, strain B6C3F1, males, oral dosing, site: lung, lesion: adenoma, dosed 76 weeks, study length 76 weeks
  TD50: 0.0156 mg/kg/day (inactive)

## C=CCN(N)CC=C
mouse, strain Swiss albino, females, in drinking water, site: forestomach, lesion: squamous-cell papilloma, dosed 100 weeks, study length 100 weeks
  TD50: 332 mg/kg/day
mouse, strain Swiss albino, females, in drinking water, site: liver, lesion: angioma, dosed 100 weeks, study length 100 weeks
  carcinogen call: negative (inactive)
mouse, strain Swiss albino, females, in drinking water, site: liver, lesion: angiosarcoma, dosed 100 weeks, study length 100 weeks
  carcinogen call: negative (inactive)
mouse, strain Swiss albino, females, in drinking water, site: lung, lesion: adenocarcinoma, dosed 100 weeks, study length 100 weeks
  TD50: 112 mg/kg/day
mouse, strain Swiss albino, females, in drinking water, site: lung, lesion: adenoma, dosed 100 weeks, study length 100 weeks
  TD50: 37.8 mg/kg/day
mouse, strain Swiss albino, females, in drinking water, site: lung, lesion: several types, types named in the paper, dosed 100 weeks, study length 100 weeks
  TD50: 34.9 mg/kg/day
mouse, strain Swiss albino, males, in drinking water, site: forestomach, lesion: squamous-cell papilloma, dosed 93 weeks, study length 93 weeks
  TD50: 48.1 mg/kg/day
mouse, strain Swiss albino, males, in drinking water, site: liver, lesion: angioma, dosed 93 weeks, study length 93 weeks
  carcinogen call: negative (inactive)
mouse, strain Swiss albino, males, in drinking water, site: liver, lesion: angiosarcoma, dosed 93 weeks, study length 93 weeks
  TD50: 723 mg/kg/day (inactive)
mouse, strain Swiss albino, males, in drinking water, site: lung, lesion: adenocarcinoma, dosed 93 weeks, study length 93 weeks
  TD50: 38.9 mg/kg/day
mouse, strain Swiss albino, males, in drinking water, site: lung, lesion: adenoma, dosed 93 weeks, study length 93 weeks
  TD50: 29.8 mg/kg/day
mouse, strain Swiss albino, males, in drinking water, site: lung, lesion: several types, types named in the paper, dosed 93 weeks, study length 93 weeks
  TD50: 25.7 mg/kg/day

## CC1=C[C@H]2O[C@@H]3[C@H](O)C[C@](C)([C@@]2(CO)[C@H](O)C1=O)[C@]31CO1
mouse, strain B6C3F1, males, in feed, site: liver, lesion: hepatocellular adenoma, dosed 104 weeks, study length 104 weeks
  carcinogen call: negative (inactive)
mouse, strain B6C3F1, males, in feed, site: liver, lesion: hepatocellular carcinoma, dosed 104 weeks, study length 104 weeks
  carcinogen call: negative (inactive)

## CN(N=O)C(=O)NCCC[C@H](N)C(=O)O
rat, strain Wistar albino, females, i.p., site: kidney, lesion: epithelial neoplasm, dosed 26 weeks, study length 52 weeks
  TD50: 0.633 mg/kg/day
rat, strain Wistar albino, females, i.p., site: kidney, lesion: mesenchymal neoplasm, dosed 26 weeks, study length 52 weeks
  TD50: 0.633 mg/kg/day
rat, strain Wistar albino, females, i.p., site: mammary tissue, wider than the gland, lesion: several types, types named in the paper, dosed 26 weeks, study length 52 weeks
  carcinogen call: positive
rat, strain Wistar albino, females, i.p., site: pancreas, lesion: adenocarcinoma in adenomatous polyp, dosed 26 weeks, study length 52 weeks
  TD50: 11 mg/kg/day
rat, strain Wistar albino, females, i.p., site: skin, lesion: neoplasm, dosed 26 weeks, study length 52 weeks
  TD50: 1.42 mg/kg/day
rat, strain Wistar albino, males, i.p., site: Zymbal's gland, lesion: carcinoma, dosed 26 weeks, study length 52 weeks
  TD50: 11.8 mg/kg/day
rat, strain Wistar albino, males, i.p., site: kidney, lesion: epithelial neoplasm, dosed 26 weeks, study length 52 weeks
  TD50: 1.04 mg/kg/day
rat, strain Wistar albino, males, i.p., site: kidney, lesion: mesenchymal neoplasm, dosed 26 weeks, study length 52 weeks
  TD50: 1.57 mg/kg/day
rat, strain Wistar albino, males, i.p., site: pancreas, lesion: adenocarcinoma, dosed 26 weeks, study length 52 weeks
  TD50: 11 mg/kg/day
rat, strain Wistar albino, males, i.p., site: pancreas, lesion: several types, types named in the paper, dosed 26 weeks, study length 52 weeks
  TD50: 5.25 mg/kg/day
rat, strain Wistar albino, males, i.p., site: skin, lesion: neoplasm, dosed 26 weeks, study length 52 weeks
  TD50: 1.04 mg/kg/day

## CCOP(=S)(OCC)Oc1ccc([N+](=O)[O-])cc1
mouse, strain B6C3F1, females, in feed, site: any site (literature study), lesion: several types, types named in the paper, dosed 80 weeks, study length 89 weeks
  carcinogen call: negative (inactive)
mouse, strain B6C3F1, males, in feed, site: any site (literature study), lesion: several types, types named in the paper, dosed 67 weeks, study length 89 weeks
  TD50: 75.1 mg/kg/day (inactive)
mouse, strain B6C3F1, males, in feed, site: liver, lesion: hepatocellular adenoma + hepatocellular carcinoma + neoplastic nodule, dosed 67 weeks, study length 89 weeks
  TD50: 111 mg/kg/day
mouse, strain B6C3F1, males, in feed, site: lung, lesion: alveolar/bronchiolar adenoma + alveolar/bronchiolar carcinoma, dosed 67 weeks, study length 89 weeks
  TD50: 52.5 mg/kg/day
rat, strain Osborne-Mendel, females, in feed, site: adrenal gland, lesion: cortical adenoma + cortical carcinoma, dosed 80 weeks, study length 109 weeks
  TD50: 3.93 mg/kg/day
rat, strain Osborne-Mendel, females, in feed, site: adrenal gland, lesion: cortical adenoma, dosed 80 weeks, study length 109 weeks
  TD50: 5.31 mg/kg/day
rat, strain Osborne-Mendel, females, in feed, site: any site (literature study), lesion: several types, types named in the paper, dosed 80 weeks, study length 112 weeks
  carcinogen call: negative (inactive)
rat, strain Osborne-Mendel, females, in feed, site: liver, lesion: hepatocellular adenoma + hepatocellular carcinoma + neoplastic nodule, dosed 80 weeks, study length 112 weeks
  TD50: 16.4 mg/kg/day
rat, strain Osborne-Mendel, females, in feed, site: mammary gland, lesion: fibroadenoma, dosed 80 weeks, study length 109 weeks
  TD50: 2.07 mg/kg/day
rat, strain Osborne-Mendel, males, in feed, site: adrenal gland, lesion: cortical adenoma + cortical carcinoma, dosed 80 weeks, study length 109 weeks
  TD50: 5.22 mg/kg/day
rat, strain Osborne-Mendel, males, in feed, site: adrenal gland, lesion: cortical adenoma, dosed 80 weeks, study length 109 weeks
  TD50: 6.39 mg/kg/day
rat, strain Osborne-Mendel, males, in feed, site: any site (literature study), lesion: several types, types named in the paper, dosed 80 weeks, study length 112 weeks
  TD50: 3.65 mg/kg/day (inactive)
rat, strain Osborne-Mendel, males, in feed, site: liver, lesion: hepatocellular adenoma + hepatocellular carcinoma + neoplastic nodule, dosed 80 weeks, study length 112 weeks
  TD50: 17.7 mg/kg/day
rat, strain Osborne-Mendel, males, in feed, site: pancreatic islets, lesion: islet-cell carcinoma, dosed 80 weeks, study length 109 weeks
  TD50: 19.2 mg/kg/day

## CCOc1ccc2c(c1)C(C)=CC(C)(C)N2
rat, strain F344/DuCrj, males, in feed, site: esophagus, lesion: one or several types, types not named, dosed 52 weeks, study length 52 weeks
  carcinogen call: negative (inactive)
rat, strain F344/DuCrj, males, in feed, site: forestomach, lesion: one or several types, types not named, dosed 52 weeks, study length 52 weeks
  carcinogen call: negative (inactive)
rat, strain F344/DuCrj, males, in feed, site: liver, lesion: one or several types, types not named, dosed 52 weeks, study length 52 weeks
  carcinogen call: negative (inactive)
rat, strain Fischer 344, females, in feed, site: kidney, lesion: one or several types, types not named, dosed 58 weeks, study length 58 weeks
  carcinogen call: negative (inactive)
rat, strain Fischer 344, females, in feed, site: kidney, lesion: one or several types, types not named, dosed 78 weeks, study length 78 weeks
  carcinogen call: negative (inactive)
rat, strain Fischer 344, males, in feed, site: kidney, lesion: one or several types, types not named, dosed 58 weeks, study length 58 weeks
  carcinogen call: negative (inactive)
rat, strain Fischer 344, males, in feed, site: kidney, lesion: one or several types, types not named, dosed 78 weeks, study length 78 weeks
  carcinogen call: negative (inactive)

## NCC(=O)O
rat, strain F344/DuCrj, females, in drinking water, site: any site (literature study), lesion: several types, types named in the paper, dosed 108 weeks, study length 108 weeks
  TD50: 7550 mg/kg/day
rat, strain F344/DuCrj, females, in drinking water, site: kidney/pelvis, lesion: transitional-cell papilloma, dosed 108 weeks, study length 108 weeks
  TD50: 25700 mg/kg/day
rat, strain F344/DuCrj, females, in drinking water, site: liver, lesion: neoplastic nodule, dosed 108 weeks, study length 108 weeks
  TD50: 157000 mg/kg/day
rat, strain F344/DuCrj, females, in drinking water, site: uterus, lesion: endometrial stromal polyp, dosed 108 weeks, study length 108 weeks
  TD50: 3100 mg/kg/day
